Patent US10723753B2, “Ras inhibitors and uses thereof” (Dana-Farber Cancer Institute, Inc., priority 2013, dated 2020)

Target: K-Ras G12C (Homo sapiens, UniProt P01116, G12C)
Assay: Fluorescence polarization assay of K-Ras G12C binding to Oregon green labelled RBD
Conditions: for EC50: Ras:Raf (RBD) binding, 95% CI given alongside, read-out: EC50 of nucleotide:Ras complex for RBD
Description: Oregon green (OG) fluorescent dye was coupled to this cysteine in RBD using maleimide chemistry resulting in covalent addition of one OG, as verified by chromatography and mass spectrometry.
This allowed the testing of multiple nucleotides for their ability to induce Ras:Raf binding.

Structure (SMILES) | Effect on binding of G12C K-Ras to the RBD protein (added at a 1:10 molar ratio to G12C K-Ras prior to the assay) | EC50 (fluorescence polarization) [nM] | Interaction of ligand-bound K-Ras G12C with RBD (fluorescence polarization, OG-labelled RBD, recombinant K-Ras G12C bound to the named ligand)
CCCC(CCC)COC(=O)[C@H](C)NP(=O)(OCCNC(=O)CCl)OP(=O)(O)OC[C@H]1O[C@@H](n2cnc3c(=O)[nH]c(N)nc32)[C@H](O)[C@@H]1O (stereo partly drawn) [Example 3, (2S)-2-propylpentyl 2-(((((((2R,3S,4R,5R)-5-(2-amino-6-oxo-1H-purin-9(6H)-yl)-3,4-dihydroxytetrahydrofuran-2-yl)methoxy)(hydroxy)phosphoryl)oxy)(2-(2-chloroacetamido)ethoxy)phosphoryl)amino)propanoate] | appeared to prevent binding |  | 
Nc1nc2c(ncn2[C@@H]2O[C@H](COP(=O)(O)OP(=O)(O)O)[C@@H](O)[C@H]2O)c(=O)[nH]1 [GDP] |  | 108 | 
Nc1nc2c(ncn2[C@@H]2O[C@H](COP(=O)(O)OP(=O)(O)OP(=O)(O)O)[C@@H](O)[C@H]2O)c(=O)[nH]1 [GTP] |  | 26 | higher affinity for RBD than the GDP bound form
